Assay results: patent US20060089378A1 (priority 2004, published 2006)
Read-outs that look alike come from different tables or passages of the source.

Tests used:
Cannabinoid CB1 Receptor = biological target: T1, Cannabinoid CB1 Receptor (Homo sapiens, UniProt P21554); experiment: Binding assay for CB1 agonists or inverse agonists (radioligand competition, membranes of transfected SK-N-MC cells)
T1 construct: expressed in transfected cells

Cannabinoid CB2 Receptor = biological target: T2, Cannabinoid CB2 Receptor (Homo sapiens, UniProt P34972); experiment: Binding assay for CB2 agonists or inverse agonists (radioligand competition, membranes of transfected SK-N-MC cells); details: for inhibition at 0.2 µM: read-out: Cannabinoid CB2 Receptor Binding percent inhibition
T2 construct: expressed in transfected cells
T2 sequence (P34972 whole entry): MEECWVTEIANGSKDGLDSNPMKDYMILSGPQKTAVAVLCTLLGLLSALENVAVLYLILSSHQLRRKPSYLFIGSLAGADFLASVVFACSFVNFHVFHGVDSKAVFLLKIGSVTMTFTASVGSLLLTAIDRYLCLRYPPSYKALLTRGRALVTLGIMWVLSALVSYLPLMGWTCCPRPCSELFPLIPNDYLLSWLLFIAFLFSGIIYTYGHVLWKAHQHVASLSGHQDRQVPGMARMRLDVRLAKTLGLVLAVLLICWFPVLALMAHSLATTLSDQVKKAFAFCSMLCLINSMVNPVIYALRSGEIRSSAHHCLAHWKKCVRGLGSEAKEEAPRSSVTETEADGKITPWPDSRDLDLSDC

CB1 receptor (human) = CB1 receptor (human) (Homo sapiens, UniProt P21554); experiment: cell-based
Chain of CB1 receptor (human) (P21554 whole entry): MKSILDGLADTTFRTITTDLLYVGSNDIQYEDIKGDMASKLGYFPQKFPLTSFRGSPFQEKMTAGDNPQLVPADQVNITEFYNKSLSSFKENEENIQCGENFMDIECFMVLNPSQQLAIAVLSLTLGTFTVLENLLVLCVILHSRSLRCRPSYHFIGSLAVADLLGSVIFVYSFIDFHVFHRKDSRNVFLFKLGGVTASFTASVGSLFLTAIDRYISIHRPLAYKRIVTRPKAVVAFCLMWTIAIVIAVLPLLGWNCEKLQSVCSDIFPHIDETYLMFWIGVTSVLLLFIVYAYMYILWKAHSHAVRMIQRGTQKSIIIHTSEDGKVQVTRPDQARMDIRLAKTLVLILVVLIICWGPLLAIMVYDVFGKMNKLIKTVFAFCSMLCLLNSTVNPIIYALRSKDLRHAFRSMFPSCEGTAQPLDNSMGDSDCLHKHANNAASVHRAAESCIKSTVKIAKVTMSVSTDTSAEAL

[1] = test concentration of 0.2 μM, compounds without an IC50 binding value

T1 sequence (P21554 whole entry): as above

Row | SMILES | IC50 (Cannabinoid CB1 Receptor) [µM] | inhibition at 0.2 µM (Cannabinoid CB2 Receptor) [%] | EC50 (CB1 receptor (human)) [µM] | inhibition at 0.2 µM (Cannabinoid CB2 Receptor; [1]) [%] | Cannabinoid CB2 Receptor Binding percent inhibition (Cannabinoid CB2 Receptor; [1]) [%]
1 | COC(=O)N1C/C(=C\c2ccc(F)cc2)c2c(c(C(=O)NN3CCCCC3)nn2-c2ccc(Cl)cc2Cl)C1 [Cpd 11, (7E)-1-(2,4-dichloro-phenyl)-7-(4-fluoro-benzylidene)-3-(piperidin-1-ylcarbamoyl)-1,4,6,7-tetrahydro-pyrazolo[4,3-c]pyridine-5-carboxylic acid methyl ester] | 0.05 | 15 | 0.04 | – | –
2 | O=C(NN1CCCCC1)c1nn(-c2ccc(Cl)cc2Cl)c2c1CNC/C2=C\c1ccc(F)cc1 [Cpd 12, (7E)-1-(2,4-dichloro-phenyl)-7-(4-fluoro-benzylidene)-4,5,6,7-tetrahydro-1H-pyrazolo[4,3-c]pyridine-3-carboxylic acid piperidin-1-ylamide] | 0.1 | 5 | 0.08 | – | –
3 | COC(=O)N1C/C(=C\c2ccc(F)cc2)c2c(c(C(=O)N[C@H](C)C3CCCCC3)nn2-c2ccc(Cl)cc2Cl)C1 [Cpd 13, (7E)-3-[(1R)-1-cyclohexyl-ethylcarbamoyl]-1-(2,4-dichloro-phenyl)-7-(4-fluoro-benzylidene)-1,4,6,7-tetrahydro-pyrazolo[4,3-c]pyridine-5-carboxylic acid methyl ester] | 0.002 | – | 0.01 | 11 | –
4 | CC(=O)N1C/C(=C\c2ccc(F)cc2)c2c(c(C(=O)N[C@H](C)C3CCCCC3)nn2-c2ccc(Cl)cc2Cl)C1 [Cpd 14, (7E)-5-acetyl-1-(2,4-dichloro-phenyl)-7-(4-fluoro-benzylidene)-4,5,6,7-tetrahydro-1H-pyrazolo[4,3-c]pyridine-3-carboxylic acid [(1R)-1-cyclohexyl-ethyl]-amide] | 0.008 | 16 | 0.004 | – | –
5 | C[C@@H](NC(=O)c1nn(-c2ccc(Cl)cc2Cl)c2c1CNC/C2=C\c1ccc(F)cc1)c1ccccc1 [Cpd 15, (7E)-1-(2,4-dichloro-phenyl)-7-(4-fluoro-benzylidene)-4,5,6,7-tetrahydro-1H-pyrazolo[4,3-c]pyridine-3-carboxylic acid [(1R)-1-phenyl-ethyl]-amide] | 0.01 | 23 | 0.01 | – | –
6 | C[C@@H](NC(=O)c1nn(-c2ccc(Cl)cc2Cl)c2c1CN(C(=O)OCc1ccccc1)C/C2=C\c1ccc(F)cc1)c1ccccc1 [Cpd 16, (7E)-1-(2,4-dichloro-phenyl)-7-(4-fluoro-benzylidene)-3-[(1R)-1-phenyl-ethylcarbamoyl]-1,4,6,7-tetrahydro-pyrazolo[4,3-c]pyridine-5-carboxylic acid benzyl ester] | 0.02 | 27 | 0.06 | – | –
7 | C[C@@H](NC(=O)c1nn(-c2ccc(Cl)cc2Cl)c2c1CN(S(C)(=O)=O)C/C2=C\c1ccc(F)cc1)c1ccccc1 [Cpd 17] | 0.002 | 36 | 0.006 | – | –
8 | Cc1ccc(S(=O)(=O)N2C/C(=C\c3ccc(F)cc3)c3c(c(C(=O)N[C@H](C)c4ccccc4)nn3-c3ccc(Cl)cc3Cl)C2)cc1 [Cpd 18] | 0.01 | 48 | 0.08 | – | –
9 | CCNC(=O)N1C/C(=C\c2ccc(F)cc2)c2c(c(C(=O)N[C@H](C)c3ccccc3)nn2-c2ccc(Cl)cc2Cl)C1 [Cpd 19, (7E)-1-(2,4-dichloro-phenyl)-7-(4-fluoro-benzylidene)-1,4,6,7-tetrahydro-pyrazolo[4,3-c]pyridine-3,5-dicarboxylic acid 5-ethylamide 3-[(1R)-(1-phenyl-ethyl)-amide]] | 0.007 | 10 | 0.005 | – | –
10 | CC(NC(=O)c1nn(-c2ccc(Cl)cc2Cl)c2c1CN(C(=O)OC(C)(C)C)C/C2=C\c1ccc(F)cc1)c1ccccn1 (stereo not drawn) [Cpd 20, (7E)-1-(2,4-dichloro-phenyl)-7-(4-fluoro-benzylidene)-3-(1-pyridin-2-yl-ethylcarbamoyl)-1,4,6,7-tetrahydro-pyrazolo[4,3-c]pyridine-5-carboxylic acid tert-butyl ester] | 0.04 | 14 | 0.02 | – | –
11 | CC(NC(=O)c1nn(-c2ccc(Cl)cc2Cl)c2c1CNC/C2=C\c1ccc(F)cc1)c1ccccn1 (stereo not drawn) [Cpd 21, (7E)-1-(2,4-dichloro-phenyl)-7-(4-fluoro-benzylidene)-4,5,6,7-tetrahydro-1H-pyrazolo[4,3-c]pyridine-3-carboxylic acid (1-pyridin-2-yl-ethyl)-amide] | 0.05 | 5 | 0.07 | – | –
12 | CC(=O)N1C/C(=C\c2ccc(F)cc2)c2c(c(C(=O)NC(C)c3ccccn3)nn2-c2ccc(Cl)cc2Cl)C1 (stereo not drawn) [Cpd 22, (7E)-5-acetyl-1-(2,4-dichloro-phenyl)-7-(4-fluoro-benzylidene)-4,5,6,7-tetrahydro-1H-pyrazolo[4,3-c]pyridine-3-carboxylic acid (1-pyridin-2-yl-ethyl)-amide] | 0.03 | 2 | 0.004 | – | –
13 | COC(=O)N1C/C(=C\c2ccc(F)cc2)c2c(c(C(=O)NC(C)c3ccccn3)nn2-c2ccc(Cl)cc2Cl)C1 (stereo not drawn) [Cpd 23, (7E)-1-(2,4-dichloro-phenyl)-7-(4-fluoro-benzylidene)-3-(1-pyridin-2-yl-ethylcarbamoyl)-1,4,6,7-tetrahydro-pyrazolo[4,3-c]pyridine-5-carboxylic acid methyl ester] | 0.01 | 18 | 0.004 | – | –
14 | CCNC(=O)N1C/C(=C\c2ccc(F)cc2)c2c(c(C(=O)NC(C)c3ccccn3)nn2-c2ccc(Cl)cc2Cl)C1 (stereo not drawn) [Cpd 24, (7E)-1-(2,4-dichloro-phenyl)-7-(4-fluoro-benzylidene)-1,4,6,7-tetrahydro-pyrazolo[4,3-c]pyridine-3,5-dicarboxylic acid 5-ethylamide 3-[(1-pyridin-2-yl-ethyl)-amide]] | 0.02 | 6 | 0.02 | – | –
15 | CC(NC(=O)c1nn(-c2ccc(Cl)cc2Cl)c2c1CN(C(=O)OCc1ccccc1)C/C2=C\c1ccc(F)cc1)c1ccccn1 (stereo not drawn) [Cpd 25, (7E)-1-(2,4-dichloro-phenyl)-7-(4-fluoro-benzylidene)-3-(1-pyridin-2-yl-ethylcarbamoyl)-1,4,6,7-tetrahydro-pyrazolo[4,3-c]pyridine-5-carboxylic acid benzyl ester] | 0.05 | 17 | 0.09 | – | –
16 | Cc1ccc(S(=O)(=O)N2C/C(=C\c3ccc(F)cc3)c3c(c(C(=O)NC(C)c4ccccn4)nn3-c3ccc(Cl)cc3Cl)C2)cc1 (stereo not drawn) [Cpd 26, (7E)-1-(2,4-dichloro-phenyl)-7-(4-fluoro-benzylidene)-5-(toluene-4-sulfonyl)-4,5,6,7-tetrahydro-1H-pyrazolo[4,3-c]pyridine-3-carboxylic acid (1-pyridin-2-yl-ethyl)-amide] | 0.03 | 24 | 0.02 | – | –
17 | CC(NC(=O)c1nn(-c2ccc(Cl)cc2Cl)c2c1CN(S(C)(=O)=O)C/C2=C\c1ccc(F)cc1)c1ccccn1 (stereo not drawn) [Cpd 27, (7E)-1-(2,4-dichloro-phenyl)-7-(4-fluoro-benzylidene)-5-methanesulfonyl-4,5,6,7-tetrahydro-1H-pyrazolo[4,3-c]pyridine-3-carboxylic acid (1-pyridin-2-yl-ethyl)-amide] | 0.005 | 16 | 0.006 | – | –
18 | C[C@@H](NC(=O)c1nn(-c2ccc(Cl)cc2Cl)c2c1CNC/C2=C\c1ccc(F)cc1)C1CCCCC1 [Cpd 28, (7E)-1-(2,4-dichloro-phenyl)-7-(4-fluoro-benzylidene)-4,5,6,7-tetrahydro-1H-pyrazolo[4,3-c]pyridine-3-carboxylic acid [(1R)-1-cyclohexyl-ethyl]-amide] | 0.02 | 31 | 0.008 | – | –
19 | CC(NC(=O)c1nn(-c2ccc(Cl)cc2Cl)c2c1CN(C)C/C2=C\c1ccc(F)cc1)c1ccccn1 (stereo not drawn) [Cpd 29, (7E)-1-(2,4-dichloro-phenyl)-7-(4-fluoro-benzylidene)-5-methyl-4,5,6,7-tetrahydro-1H-pyrazolo[4,3-c]pyridine-3-carboxylic acid (1-pyridin-2-yl-ethyl)-amide] | 0.06 | 6 | 0.006 | – | –
20 | C[C@@H](NC(=O)c1nn(-c2ccc(Cl)cc2Cl)c2c1CN(S(C)(=O)=O)C/C2=C\c1ccc(F)cc1)C1CCCCC1 [Cpd 30, (7E)-1-(2,4-dichloro-phenyl)-7-(4-fluoro-benzylidene)-5-methanesulfonyl-4,5,6,7-tetrahydro-1H-pyrazolo[4,3-c]pyridine-3-carboxylic acid [(1R)-1-cyclohexyl-ethyl]-amide] | 0.007 | 1 | 0.001 | – | –
21 | Cc1ccc(S(=O)(=O)N2C/C(=C\c3ccc(F)cc3)c3c(c(C(=O)N[C@H](C)C4CCCCC4)nn3-c3ccc(Cl)cc3Cl)C2)cc1 [Cpd 31, (7E)-1-(2,4-dichloro-phenyl)-7-(4-fluoro-benzylidene)-5-(toluene-4-sulfonyl)-4,5,6,7-tetrahydro-1H-pyrazolo[4,3-c]pyridine-3-carboxylic acid [(1R)-1-cyclohexyl-ethyl]-amide] | 0.03 | – | 1.1 | – | 29
22 | CCNC(=O)N1C/C(=C\c2ccc(F)cc2)c2c(c(C(=O)N[C@H](C)C3CCCCC3)nn2-c2ccc(Cl)cc2Cl)C1 [Cpd 32, (7E)-1-(2,4-dichloro-phenyl)-7-(4-fluoro-benzylidene)-1,4,6,7-tetrahydro-pyrazolo[4,3-c]pyridine-3,5-dicarboxylic acid 3-{[(1R)-1-cyclohexyl-ethyl]-amide} 5-ethylamide] | 0.02 | 6 | 0.003 | – | –
23 | CS(=O)(=O)N1C/C(=C\c2ccc(F)cc2)c2c(c(C(=O)NN3CCCCC3)nn2-c2ccc(Cl)cc2Cl)C1 [Cpd 33, (7E)-1-(2,4-dichloro-phenyl)-7-(4-fluoro-benzylidene)-5-methanesulfonyl-4,5,6,7-tetrahydro-1H-pyrazolo[4,3-c]pyridine-3-carboxylic acid piperidin-1-ylamide] | 0.03 | 15 | 0.009 | – | –
